Measurements as given in US8491938B2, “Potent inhibitory effect of zinc in combination with sulforaphane on cancer cell growth” (University of Maryland, Baltimore, priority 2009, dated 2013).
Like-named read-outs stand apart in the source and are kept apart here.

Key:
Type in all cases: cell-based, human
PC-3 cells [1] = test: Mitochondrial membrane potential (MMP) detection, DiOC6(3)/PI flow cytometry, PC-3 cells; details: for effect on MMP alteration induced by zinc/SFN: PC-3, pretreatment 30 min, treatment 24 h; for effect on MMP versus control, single agent: PC-3, zinc alone or SFN 12 μM alone
Excerpt: Cell flow cytometric analysis with 3,3′-dihexyloxacarbocyanine iodide (DiOC6(3); Invitrogen, Carlsbad, Calif.) and propidium iodide (PI;BD Pharmingen, San Jose, Calif.) was used to evaluate MMP and apoptosis of the cells. The fluorescence dye DiOC6(3) is featured by its accumulation in the mitochondrial matrix, which is resulted from negative mitochondrial membrane potential within viable cells. Thus, the changes of fluorescence of DiOC6(3) reflect the MMP alteration of the cells. Another fluorescence dye PI is cell membrane impermeable and able to stain DNA once cell membrane integrity is damaged during apoptosis. In the experiments, after treatments, cells (2.5×10^5/ml) were incubated with 100 nM DiOC6(3) in PBS for 15 min at 37° C. Then the cells were washed in PBS once, followed by incubation with 2.5 μg/ml PI for additional 10 min at room temperature. The samples were subjected to cell flow cytometric analysis, and FACScan (Becton Dickinson) was used to analyze the fluorescence of DIOC6(3) and PI [2].

PC-3 cells [2] = test: ROS detection (carboxy-H2DCFDA, flow cytometry) in PC-3 cells; details: for effect on ROS production induced by zinc, SFN or zinc/SFN combination / effect on surge of ROS induced by zinc/SFN combination: PC-3, inhibitor 6 mM; for effect on ROS production induced by zinc, SFN or zinc/SFN combination: 30 min pretreatment, 6 h and 24 h; for effect on surge of ROS induced by zinc/SFN combination: 24 h of treatment; for increase of ROS levels: PC-3, SFN alone
Description: 5-(and-6)-carboxy-2 ′,7 ′-dichlorodihydrofluorescein diacetate (carboxy-H2DCFDA,) was used to determine the intracellular ROS levels of individual cells. In living cells, this compound is oxidized and converted to the 2′,7′-dichlorofluoroscein (DCF) that is highly fluorescent. In the experiments, PC-3 cells cultured on 12-well plates were incubated in serum-free medium containing zinc sulfate ([…])/SFN (12 μM). Thirty min prior to the completion of the time course, carboxy-H2DCFDA was added at a final concentration of 5 μM. Cells were then collected and washed once with PBS. The fluorescent intensity of DCF was assayed by FACScan (Becton Dickinson)[3].

PC-3 cells [3] = test: MTT cell viability assay, PC-3 cells; details: for effect on growth inhibitory effect of zinc, SFN and their combination: PC-3, inhibitor 6 mM pretreatment; for effect on growth inhibitory effect of zinc, SFN and their combination / IC50: MTT; for IC50: PC-3 cells, single agent, read-out: 50% inhibitory concentration (IC50)
Description: Two human prostatic cell lines were used: a) HPR-1, a cell line derived from normal human prostate epithelial cells (kindly provided by Dr. C. K. Choo, University of Hong Kong, Hong Kong, China); and b) PC-3, a human malignant prostate cell line (ATCC, Rockville, Md.). HPR-1 cells were cultured in keratinocyte medium supplemented with epidermal growth factor (EGF) ([…]) and bovine pituitary extracts (25 mg/500 ml) (Gibco BRL, Life Technologies, Bethesda, Md.). PC-3 cells were cultured in RPMI-1640 medium with 5% or 10% of fetal bovine serum (FBS), respectively. All media were supplemented with penicillin/streptomycin (1 U/ml, Invitrogen), and the cells were maintained at 37° C. in a humidified incubator with 5% CO2. The passages of the cell lines were within the range of 5-40. Once the cell density reached 50-60% confluence, the growth media were replaced by fresh serum/supplement-free medium for 24 h to synchronize cell growth. The cells were then treated with or without zinc sulfate (concentrations as indicated in the legends) in fresh serum/supplement-free medium for 0, 1, 3, 6, 12, and 24 h, respectively.
(§1) Cell viability and proliferation were evaluated with the MTT assay. The cells were seeded at a density of 9×10^3 cells/well in a 96 well plate containing 100 μl culture medium/well. After attachment, cells were treated with or without zinc and/or SFN at various concentrations in serum/supplement free medium. After 24 h treatment, 10 μl MTT (5 mg/ml, sigma) was added into each well and incubated at 37° C. for 1 h. Then the medium was removed and 100 μl dimethyl sulfoxide (DMSO) was added to dissolve water-insoluble formazan crystals converted from water-soluble MTT by living cells. The color absorbency of formazan was detected at a wavelength of 540 nm using a microplate reader (Molecular Devices).
[formula] experiments were designed by a statistics-based method utilizing the maximal power design developed by Fang and Tan(2003, 2008) and the corresponding SynStat version 1.beta software (http://www.umgcc.org/research/biostat_software.htm), This method uses uniform measures maximizes the minimum power of the F-test to detect departures from the additive action of drugs. […] With the information from experiments of single agents, SynStat derived 21 mixtures of the two agents and 6 replicates at each mixture based on the pooled variations in single agent experiments, which have 80% statistical power to detect at least a 15% difference in viability between the predicted additive values and the observed values at a significance level of 5%. Then, cells are exposed to these 21 mixtures and the cytotoxicity of this combination is determined. Upon completion of the experiments, we use the F-statistic given by Tan et al. (2003) to test the hypothesis of the additive action of two agents and calculate the p-value of the F-test. If the p-value is greater than 0.05, we can accept the hypothesis of the additive action of two agents. Otherwise, we calculate the interaction index (τ), which is proposed by Berenbaum who adopted the Lowe additivity model (Berenbaum, 1977) where, for a given cytotoxic effect, xA and xB are the concentrations of zinc and SFN in the combination, and XA and XB are the concentrations of zinc and SFN respectively that achieve the same cytotoxic effect when given alone. A τ value of 1 indicates additivity; τ<1 indicates synergy, and τ>1 indicates antagonism.

HPR-1 cells = test: MTT cell viability assay, HPR-1 cells
Description: as §1, with “Two human prostatic cell lines were used: a) HPR-1, a cell line derived from normal human prostate epithelial cells (kindly provided by Dr. C. K. Choo, University of Hong Kong, Hong Kong, China); and b) PC-3, a human malignant prostate cell line (ATCC, Rockville, Md.). HPR-1 cells were cultured in keratinocyte medium supplemented with epidermal growth factor (EGF) ([…]) and bovine pituitary extracts (25 mg/500 ml) (Gibco BRL, Life Technologies, Bethesda, Md.). […] The passages of the cell lines were within the range of 5-40. […] Cell” for “Cell”

MT1/2 [4] = test: Western blot of MT1/2 expression in HPR-1 cells; details: zinc at 24 h, SFN at 6 h and 24 h
Description: (§2) Total cellular proteins from the experimental samples were extracted by radioimmuno-precipitation assay (RIPA) lysis buffer (Upstate, Lake Placid, N.Y.) containing protease inhibitor (Roche Diagnostics Gmbh, Mannheim, Germany). The protein extracts (30 μg/lane) were applied to electrophoresis on an SDS-polyacrylamide gel, and then, a transferred poly(vinylidene fluoride) (PVDF) membrane (Millipore, Billerica, Mass.) was blocked in 5% nonfat dry milk in phosphate buffered saline (PBS) containing 0.05% Tween-20 (Sigma, St. Louis, Mo.) (PBST) for 1 hr at room temperature followed by the hybridization to the primary antibodies against PARP (BD pharmingen, San Jose, Calif.), caspase 3 (BD pharmingen, San Jose, Calif.), p-JNK and JNK1 (Santa Cruz, Calif.), pP38 and P38 (Cell Signaling Technology, Danvers, Mass.), ppERK1/2 (Sigma, St. Louis, Mo.), ERK1/2 (Cell Signaling Technology, Danvers, Mass.) at 4° C. overnight. After washing, the membranes were incubated with corresponding second antibodies. Beta-actin (Sigma, St. Louis, Mo.) and GAPDH (Cell Signaling Technology, Danvers, Mass.) were used as internal controls to monitor the sample loadings. […] The signals of targeted bands were scanned and quantified with an LKB Ultra Scan XL laser densitometer (Image Quant, Molecular Dynamics, Sunnyvale, Calif.).

p38 = test: Western blot of p38 activation in PC-3 cells; details: PC-3, 6 h treatment, versus control
Description: as §2

[5] = test system: cytochrome c, pro-caspase 3 and PARP; test: Western blot of apoptosis proteins in PC-3 cells; details: PC-3, zinc 12.5 μM or SFN 12 μM alone, 24 h
Description: as §2, with “Calif.). […]” for “Calif.).”

MT1/2 [6] = test: Western blot of MT1/2 expression in PC-3 cells; details: zinc at 24 h, SFN and combination at 6 and 24 h
Description: as §2

SMILES	effect on MMP alteration induced by zinc/SFN (PC-3 cells [1])	effect on ROS production induced by zinc, SFN or zinc/SFN combination (PC-3 cells [2])	effect on surge of ROS induced by zinc/SFN combination (PC-3 cells [2])	effect on growth inhibitory effect of zinc, SFN and their combination (PC-3 cells [3])	HPR-1 cells still alive (plateau) (HPR-1 cells; SFN 25 μM and even higher, 24 h) [%]	response of HPR-1 cells to lower concentration of SFN (HPR-1 cells; SFN <10 μM, 24 h)	proliferation of HPR-1 cells (HPR-1 cells; SFN at the range of 10 to 25, 24 h, less effective than in PC-3 cells)	MT1/2 protein levels (MT1/2 [4])	effect on MMP versus control, single agent (PC-3 cells [1])	increase of ROS levels (PC-3 cells [2]; late time points (12 to 24 h), first value)	increase of ROS levels (PC-3 cells [2]; late time points (12 to 24 h), second value) [%]	phosphorylation of p38 (p38)	IC50 (PC-3 cells [3]; Homo sapiens, 24 h) [µM]	apoptotic effect (cytochrome c, pro-caspase 3, PARP), single agent [5]	MT1/2 protein levels (MT1/2 [6])	HPR-1 cells still alive (HPR-1 cells; zinc 30 μM, 24 h)	response of HPR-1 cells to zinc (HPR-1 cells; zinc alone at doses of the six selected combinations, 24 h)	increase of ROS level (PC-3 cells [2]; PC-3, zinc alone, late time points (12 to 24 h))	IC50 (PC-3 cells [3]; 24 h) [µM]	PC-3 cells that could survive (PC-3 cells [3]; zinc 30 μM, 24 h)
N[C@@H](CCC(=O)N[C@@H](CS)C(=O)NCC(=O)O)C(=O)O [GSH, reduced glutathionein]	completely prevented	significantly inhibited ROS production	completely abolished	concordantly abolished																
CC(=O)N[C@@H](CS)C(=O)O [NAC, N-Acetyl Cysteine]	completely prevented	significantly inhibited ROS production	completely abolished	concordantly abolished																
C[S+]([O-])CCCCN=C=S (centres unmarked) [SFN, 1-Isothiocyanato-4-methylsulfinylbutane]					60	no response	inhibited in a dose-dependent pattern	decreased expression of MT1/2	did not affect MMP at all	about 35%	~55	increased phosphorylation of p38	20.3 ± 0.8	lack of cell responses	no effect or a slight inhibition					
O=S(=O)([O-])[O-].[Zn+2] [zinc, zinc sulfate]								induce expression of MT1/2 significantly	increase one fold			increased phosphorylation of p38		lack of cell responses	significant induction	around 90%	no response	40-50%	16.2 ± 0.9	less than 20%
